The record followed here is patent US9796674B2, “Benzyl urea derivatives for activating TGF-beta signaling” (THE BOARD OF TRUSTEES OF THE LELAND STANFORD JUNIOR …, priority 2013, dated 2017).

One may read the solubility as the dissolved amount per volume that the medium holds. High values mean much dissolved substance, low ones little dissolved substance. One may read the NOAEL as the highest dose or exposure tested at which no adverse effect was seen. One may read the CC50 as the concentration giving 50% cytotoxicity. The low end stands for harm at low concentration, the high end for better tolerance by the cells.

In one data set the test system is N2A-APP-Swe cells. Briefly: Neurotoxicity of macrophage-conditioned medium (MTS assay). The class given is cell-based, mouse. The protocol: (§1) FIGS. 4A and 4B present data from experiments in which human macrophages differentiated from THP-1 monocytic cell lines and mouse J774A.1 macrophages were incubated with fibrillar Aβ in the absence or presence of compound (2 or 5 μM) for 24 h. Conditioned medium was harvested and the remaining Aβ was quantified by Aβ ELISA. The collected medium (FIGS. 4C-4D) was added to N2A-APP-Swe cells (mouse Neuro-2A neuroblastoma cells stably expressing Swedish APP695) and incubated for 24 h. Neurotoxicity was quantified by an MTS Assay.
Mouse J774A.1 macrophages and human macrophages that were differentiated from THP-1 monocytic cell lines were treated with fibrillar Aβ42 in the absence or presence of SRI-011382 or its derivative compounds (2, 5, or 10 μM) for 24 h. Conditioned medium was harvested and the remaining Aβ42 that was not phagocytosed by macrophages was quantified by Aβ42 ELISA kit (Invitrogen). Data was normalized to control medium containing the input amount of Aβ42. Neurotoxicity induced by fibrillar Aβ42 in the conditioned medium was then assessed by incubating Neuro-2a neuroblastoma cells with conditioned medium for 24 h followed by MTS-based viability assay. Data was normalized to control cells without fibrillar Aβ42 treatment.
(Formazan colour is commonly taken as a measure of viable cells.)

Data set [1] is described as follows: PAMPA double sink permeability assay. The settings on record: pH 7.4, 6.2, 5.0, read-out: sum of the permeability coefficients (Pe). The class given is in vitro ADME. The procedure:
Permeability Assays: PAMPA screens, both for absorption from the gut and through blood brain barrier, were used as a first tier screen for this program. SRI-011381 was evaluated in the double sink assay format and the sum of the permeability coefficients at three pH values (7.4, 6.2, 5.0) was calculated (Pe) to be 781×10^−6 cm/s, which is consistent with an orally available compound.
Permeability PAMPA: The PAMPA assay was used to predict oral bioavailability of compounds. The PAMPA determines the permeability of compounds across a biological membrane using a synthetic lipid membrane and detection by UV absorbance. […] The PAMPA-BBB assay was performed, to predict permeability to the blood brain barrier, as an aqueous assay and as a co-solvent assay. In this assay the composition of the lipid membrane included brain-derived lipids, mimicking the BBB membrane.
(The PAMPA barrier holds no transporters, so it reflects passive diffusion.)

The next data set in a line: Solubility. The class given is physicochemical. The note with it: aqueous buffer; in PBS.
The nature of data set [2]: Dose escalation and 14-day MTD study in female FVB mice. The class given is in vivo. The settings on record: female, FVB, mouse, in vivo; daily oral dose for 14 days. The procedure: In Vivo Range Finding Toxicity Studies in Mice and Rats: Dose escalation and 14-day MTD study of SRI-011381 and SRI-011382 in female FVB mice: The objectives of this study were to determine the maximum tolerated dose (MTD) and a no observable adverse effect level (NOAEL) in female FVB mice following a daily oral dose administration for 14 consecutive days. An initial dose escalation was performed with intraperitoneal (ip), oral (po), and intravenous (iv) dose routes for a single-dose MTD of SRI-011381 and SRI-011382.
Subsequently, three dose levels (10, 30, and 75 mg/kg) and a vehicle control group were used in the 14-day oral dose administration to determine the MTD and NOAEL based on changes in bodyweight, clinical observations, serum chemistry, hematology and gross organ physiology in 5 female mice per treatment group.
The objectives of this study were to determine maximum tolerated dose (MTD) and a no observable adverse effect level (NOAEL) in female FVB mice following a daily oral dose administration for 14 consecutive days. After a dose escalation single dose study with doses up to 400 mg/kg, three dose levels were selected for the repeat dose study, 10, 30 and 75 mg/kg, administered […]. The MTD is the maximum dose administered that results in less than 10% body weight loss compared to controls and no other dose limiting adverse effects (e.g. clinical pathology).

Data set [3] is described as follows: Cytotoxicity in primary rat hepatocytes. The note with it: rat. The class given is cell-based. The protocol:
In Vitro Cytotoxicity: The cytotoxicity of SRI-011381 was determined in primary rat hepatocytes and in VERO cells.
Rat hepatocytes were isolated by collagenase perfusion and allowed to form a monolayer overnight. The test compounds were added to the cells in 5 concentrations up to 250 μM. Cells were incubated with the test article for 20 h and then toxicity determined by the MTT cytotoxicity screen. Toxicity was evaluated against the vehicle control (DMSO) and a positive control, amitriptylin, was included with each experiment.

Data set [4] has as its system CYPs 1A2, 2B6, 2C9, 2C19, 2D6, 3A4. Nature of the data set: CYP inhibition in human liver microsomes. The class given is in vitro ADME. The settings on record: 1 and 10 μM, significant = >30% reduction in activity. An excerpt: CYP Inhibition: SRI-011381 was screened for CYP inhibition, an indicator of potential drug interactions. […] Thus, this compound is unlikely to cause clinically relevant interactions due to effects on co-administered drugs metabolized by these hepatic enzymes.
Drug Interactions (GYP inhibition): GYPs are major enzymes involved in drug metabolism and this assay is used to screen the inhibitory potential of test compounds on in vitro CYP activity, and help predict potential drug interactions due to inhibition of metabolism of one drug by another. This assay was performed by incubating test compounds with human liver microsomes and model CYP substrates (i.e., phenacetin (CYP1A2), bupropion (CYP2B6), diclofenac (CYP2C9), mephenytoin (CYP2C19), bufuralol (CYP2D6), testosterone (CYP3A4), and midazolam (CYP3A4)). Control incubations containing compounds known to inhibit specific CYPs were also included and incubated in the same manner as the test compounds (i.e., furafylline (CYP1A2), thioTEPA (CYP2B6), sulfaphenazole (CYP2C9), tranylcypromine (CYP2C19), quinidine (CYP2D6), and ketoconazole (CYP3A4)). The data is expressed as ‘% of control’, where the controls consist of the model substrates incubated with microsomes (no test compounds or inhibitors).
In general terms: Microsomes from liver hold many membrane-bound enzymes, among them those of drug oxidation.

For data set [5], the system named is mouse J774A.1 macrophages. Nature of the data set: Fibrillar Aβ clearance by J774A.1 macrophages. The class given is cell-based. The settings on record: 24 h, 2, 5, or 10 μM. The procedure:
SRI-011381 promotes Aβ clearance in cell culture: TGF-β1 promotes Aβ clearance in a microglia cell line. To test whether SRI-011381 has similar properties, mouse J774A.1 macrophages and human macrophages differentiated from THP-1 monocytic cell lines were treated with fibrillar Aβ in the absence or presence of compound (2, 5, or 10 μM) for 24 h. Conditioned medium was harvested and the remaining Aβ that was not phagocytosed by macrophages was quantified by Aβ ELISA.
as §1
Mouse J774A.1 macrophages and human macrophages that were differentiated from THP-1 monocytic cell lines were treated with fibrillar Aβ42 in the absence or presence of SRI-011382 or its derivative compounds (2, 5, or 10 μM) for 24 h. Conditioned medium was harvested and the remaining Aβ42 that was not phagocytosed by macrophages was quantified by Aβ42 ELISA kit (Invitrogen). […]

In brackets after ≈: the same amount, converted by molar mass. Entries after “also recorded” stand apart in the source; their conditions may differ.

On to `O=C(NC1CCCCC1)N(Cc1ccccc1)CC1CCNCC1` [SRI-011381, 1-Benzyl-3-cyclohexyl-1-(piperidin-4-ylmethyl)urea], for which the “fibrillar Aβ42-induced neurotoxicity” value with N2A-APP-Swe cells (medium conditioned by J774A.1 macrophages) and in the data set with N2A-APP-Swe cells (medium conditioned by THP-1 macrophages) was “protect human neuronal cells from fibrillar Aβ42-induced neurotoxicity” in each case. Moreover, the Papp in data set [1] was 781 ×10⁻⁶ cm/s. Besides, in “Solubility”, the concentration in solution (solubility) was 5200 µg/mL (≈ 15.8 mM). Moreover, the NOAEL at 14 days in data set [2] was < 30 mg/kg. Also, the CC50 at 20 h in data set [3] was > 100 µM. Besides, in data set [4], the CYP inhibition entry is “did not inhibit any CYP activity significantly”. Moreover, the “fibrillar Aβ clearance” value in data set [5] was “promoted fibrillar Aβ clearance; also recorded: promoted fibrillar Aβ42 clearance”; in data set [5] (listed as SRI-11381), “promote fibrillar Aβ42 clearance”.
